Compound | melting point [°C]
CCS(=O)(=O)c1cc(C(=O)NCC2CCCN2CCC2CC2)c(OC)cc1N (centres undefined) | 209
CC(C)(C)OC(=O)N1CCN(C(=O)OC[C@@]2(C)Cn3cc([N+](=O)[O-])nc3O2)CC1 | 211 to 212
N#CN=C1CCCN1C1=CC(CF)(CF)Oc2ccc(C(F)(F)C(F)(F)F)cc21 | 207 to 210
COC(=O)c1cc(N)ccc1Oc1ccccc1 | 154 to 156
CSc1ncncc1C1c2c(F)cccc2CC1(C)C (centres undefined) | 81 to 82
O=C(CBr)Nc1cc(F)c(F)cc1C(=O)O | 177 to 180
CCCOc1ccccc1OS(=O)(=O)NC(=O)Nc1nc(OC)cc(OC)n1 | 108 to 109
CCOC(=O)c1sc(-c2ccc3c(=O)n(CC(C)C)c(CNC(=O)OCC4c5ccccc5-c5ccccc54)c(-c4ccccc4)c3c2)nc1C | 157 to 158
Cc1ccc(C)c(C(=O)CC#N)c1 | 75 to 76
O=C1C2=C(CCCC2)C(=O)N1CCCCCCN1C(=O)C2=C(CCCC2)C1=O | 123 to 124
Cn1cnc2c(Cl)nccc21 | 127 to 131
CCCC(C)Oc1ccc(C(=O)O)cc1 (centres undefined) | 67 to 68.8
Cc1cc(CN(C(=O)Nc2ccc(C(=O)O)cc2)c2ccc3c(c2)C(C)(C)CCC3(C)C)no1 | 188 to 193
CN1CCN(c2ccc(Nc3ncc4ccc(-c5ccccc5OCC#N)n4n3)cc2)CC1 | 95 to 101
Cc1c(Cc2ccc(C(C)C)cc2)c2c(c(C)c1NC(=O)CC(C)(C)C)C(N(C)C)C(C)(C)O2 (centres undefined) | 138 to 139
Cc1nc2cc(NC(=O)c3cc4cc(F)ncc4n3Cc3cccc(F)c3)ccc2n1C | 245 to 247
C=CCc1cc(COC(=O)C(C)C)ccc1C#CC1(O)CN2CCC1CC2 (centres undefined) | 68
Cc1nn2c(-c3cc(Cl)ccc3Cl)ccnc2c1C(N)=O | 234 to 236
COC(=O)c1ccc(OC)c(NC(=N)c2ccc(F)cc2)c1 | 120
CCCS(=O)(=O)N(c1cc(Cl)ccc1C(=O)OC)S(=O)(=O)CCC | 156 to 158
O=S(=O)(Nc1ccc(C(F)(F)F)cc1Cl)c1cc(C(F)(F)F)ccc1Cl | 122 to 123
O=C(Nc1ccc2ccc(Br)nc2n1)c1ccc(F)cc1 | 228
C(C#CSCc1ccccc1)#CSCc1ccccc1 | 38 to 39
C[C@H](CS)C(=O)N1C(C(=O)O)CCC1c1ccccc1 (some centres undefined) | 138 to 142
c1ccc2sc(=NCCN3CCOCC3)sc2c1 | 75 to 76

Compound | melting point [°C]
CC(=O)Oc1cc2c(cc1C(C)(C)CC(C)(C)C)OC(C)(COc1ccc([N+](=O)[O-])cc1)CC2=O (centres undefined) | 166 to 167
CC(=O)c1c(-c2ccncc2)[nH]c(-c2ccnc3ccccc23)c1C | 237 to 239
Brc1csc(C#Cc2ccccc2)n1 | 79 to 82
COc1cc(C)nc(NC(=O)NS(=O)(=O)c2ccccc2C(CF)OC(C)=O)n1 (centres undefined) | 198 to 200
CC(C)(C)OC(=O)c1ccc(C(=O)NS(=O)(=O)c2ccccc2)cc1 | 141 to 143
COC(=O)c1ccc(OCCCBr)cc1NC(=O)C=Cc1ccc(-c2ccccc2)cc1 | 142 to 145
O=[N+]([O-])c1ccc(Nc2cccc(O)c2)cc1 | 158 to 160
C/C(=C\c1ccc(C(F)(F)F)cc1)C(=O)O | 170
Nc1cc(C(=O)Nc2ccccc2)ccc1F | 167 to 170
Cn1c(C(F)(F)F)cc(=O)n(-c2cc3c(cc2F)nc(C(F)(F)F)n3Cc2cccc(Cl)c2)c1=O | 91 to 93
Cc1cc(-n2ccnc2)c2cccc(OCc3c(Cl)ccc(S(=O)(=O)N4CCC[C@H]4C(=O)NCC4CCN(CCO)CC4)c3Cl)c2n1 | 160
CCOC(=O)c1nc2ccc(OC)cc2[nH]c1=O | 229
COc1cc(OC)c2c(=O)[nH]c(-c3cc(C)c(OCCN4CCCC4)c(C)c3)nc2n1 | 228 to 230
Cc1cc(NS(=O)(=O)c2ccc(S(C)(=O)=O)cc2)cc(C)c1S(=O)(=O)C[N+](=O)[O-] | 192 to 194
O=C(CNC(=O)c1ccc(C2=NOC(c3cc(Cl)cc(C(F)(F)F)c3)(C(F)(F)F)C2)c2ccccc12)NCC(F)(F)F (centres undefined) | 107 to 108
COc1ccc(N2CCOCC2)c2sc(C(=O)NC3CCN(C(=O)OC(C)(C)C)CCC3=O)nc12 (centres undefined) | 95 to 97
COc1ccc(C#CC(C)N(O)C(N)=O)o1 (centres undefined) | 131
c1ccc(CCN2CCN(c3n[nH]c4c3Cc3ccccc3-4)CC2)cc1 | 212 to 214
N=C(N)c1ccc2cc(OC(=O)CC3CCCCC3)ccc2c1 | 203 to 205
Brc1cnc2nc(N3CCN(CCCCOc4ccccc4)CC3)nn2c1 | 122 to 123
CN1CCN(c2cc(Cl)cc3c2c(=O)n(Cc2ccccc2)c(=O)n3Cc2ccccc2)CC1 | 113 to 116
O=C(O)c1cc2cc(O)ccc2o1 | 223 to 228
COc1ccccc1C(=C/C=C/C(=O)Oc1ccc([N+](=O)[O-])cc1)c1ccccc1OC | 142 to 143
CN(C(=O)C(F)(F)F)c1cnc(-c2cncc(F)c2)s1 | 168 to 170
